Values after ≈ are worked out from the molar mass of the structure shown.
How the values were obtained:
[1] = tested on: Bacillus subtilis IFO 3134; test: Antibacterial activity, standard method of Japan Society of Chemotherapy (Table 2); type: cell-based; details: IFO3134, read-out: Minimal inhibitory concentration
From the text: (§1) Derivative No. in Table 2 corresponds to derivative No. in Table 1.

[2] = tested on: Escherichia coli IFO 12734; test: as above; type: cell-based; details: IFO12734, read-out: Minimal inhibitory concentration
From the text: as §1

[3] = tested on: Klebsiella pneumoniae IFO 3512; test: as above; type: cell-based; details: IFO3512, read-out: Minimal inhibitory concentration
From the text: as §1

[4] = tested on: Micrococcus luteus IFO 12708; test: as above; type: cell-based; details: IFO12708, read-out: Minimal inhibitory concentration
From the text: as §1

[5] = tested on: Mycobacterium smegmatis ATCC 607; test: as above; type: cell-based; details: Mycolicibacterium smegmatis, ATCC607, read-out: Minimal inhibitory concentration
From the text: as §1

[6] = tested on: Staphylococcus aureus IFO 12732; test: as above; type: cell-based; details: IFO12732, read-out: Minimal inhibitory concentration
From the text: as §1

[7] = tested on: Mycobacterium tuberculosis H37 Rv; test: Antibacterial activity against a tubercle bacillus, two-fold dilution in Kirchner liquid medium; details: Table 3; Kirchner medium with 10% bovine serum, 37° C., 4 weeks
[8] = tested on: Mycobacterium tuberculosis H37 Rv; test: Therapeutic effect on mice experimentally infected with tuberculosis (FIG. 1, groups of 20 mice); details: oral, 200 μg/mouse, once a day, six days a week
From the text: In FIG. 1, the point, a, means the time that mice were infected, and the point, b, means the time that the treatment started.

CCOc1c(N2CCN(CC(C)C)CC2)ccc2nc3c4c5c6c(C)c(O)c4c(=O)c(c-3oc12)NC(=O)C(C)=CC=CC(C)C(O)C(C)C(O)C(C)C(OC(C)=O)C(C)C(OC)C=COC(C)(O6)C5=O (centres unmarked) [Derivative No. 8]
MIC [1]: ≤ 0.02 µg/mL | MIC [2]: > 10 µg/mL | MIC [3]: > 10 µg/mL | MIC [4]: ≤ 0.02 µg/mL | MIC [5]: 0.63 µg/mL (≈ 0.65 µM) | MIC [6]: ≤ 0.02 µg/mL | Minimal inhibitory concentration [7]: 0.07 µg/mL (≈ 0.0722 µM) | therapeutic effect as compared with rifampicin and derivative A [8]: excellent therapeutic effect as compared with rifampicin
